# Experimental data reported in ChEMBL document CHEMBL4831562, “Discovery of Imidazole-Based Inhibitors of Plasmodium falciparum cGMP-Dependent Protein Kinase” (ACS Med Chem Lett, 2021).
# Key:
# Plasmodium berghei [1] = experiment: (§1) Antiplasmodial activity against luciferase expressing Plasmodium berghei sporozoites infected in HepG2 cells assessed as decrease in parasite infection at 2 uM incubated for 16 hrs followed by replacement with compound free medium and measured after 48 hrs post infection by IVIS spectrum in vivo imaging analysis relative to control; format: functional; details: read-out: INH
# [2] = Inhibition of Plasmodium falciparum PKG
# Plasmodium falciparum [3] = experiment: Inhibition of Plasmodium falciparum PKG using FAM-labeled PKAtide or IP3R-derived peptide as a substrate at 1 uM preincubated for 15 mins followed by substrate addition and incubated for 60 mins by IMAP assay relative to control; details: time 75.0 min
# [4] = Inhibition of Plasmodium falciparum PKG using FAM-labeled PKAtide or IP3R-derived peptide as a substrate preincubated for 15 mins followed by substrate addition and incubated for 60 mins by IMAP assay
# Plasmodium berghei [5] = experiment: as §1, with “at 10” for “at 2”, “medium” for “medium and”; format: functional; details: read-out: INH
# Plasmodium berghei [6] = experiment: as §1, with “berghei hepatic stage” for “berghei”, “infection” for “infection at 2 uM”, “medium” for “medium and”, “analysis” for “analysis relative to control”; format: functional, organism-based
# Plasmodium falciparum [7] = experiment: Antiplasmodial activity against asexual blood stage Plasmodium falciparum 3D7; format: functional, organism-based
# [8] = Kinetic aqueous solubility of the compound at pH 7.4 measured after 1 hr by UV/LC-MS/MS analysis; format: physicochemical; details: buffer, read-out: Kinetic_solubility
# Cytochrome P450 2D6 = Cytochrome P450 2D6 (Homo sapiens, UniProt P10635); experiment: Inhibition of human CYP2D6 using 3-[2-(N,N-diethylamino)ethyl]-7-methoxy-4-methyl coumarin as a substrate incubated for 45 mins by fluorescence based analysis; format: ADME
# [9] = Metabolic stability in mouse liver microsomes assessed as half life incubated for 60 mins in the presence of NADPH by LC-MS/MS analysis; format: ADME, Microsome
# Plasmodium cynomolgi [10] = experiment: Antiplasmodial activity against liver stage Plasmodium cynomolgi B infected in non-human primate hepatocytes assessed as inhibition of liver schizonts development incubated for 4 days from sporozoite addition by prophylactic assay; format: functional, organism-based; details: Hepatocyte, 96 h
# Cytochrome P450 3A4 = Cytochrome P450 3A4 (Homo sapiens, UniProt P08684); experiment: Inhibition of human CYP3A4 using testosterone as a substrate by LC/MS/MS analysis; format: ADME
# Plasmodium cynomolgi [11] = experiment: Antiplasmodial activity against liver stage Plasmodium cynomolgi B infected in non-human primate hepatocytes assessed as reduction in liver hypnozoites development incubated for 4 days starting on day 4 post-sporozoite inoculation by […] cure mode analysis; format: functional, organism-based; details: Hepatocyte, 96 h
# Plasmodium cynomolgi [12] = experiment: Antiplasmodial activity against liver stage Plasmodium cynomolgi B infected in non-human primate hepatocytes assessed as reduction in liver schizonts development incubated for 4 days starting on day 4 post-sporozoite inoculation by […] cure mode analysis; format: functional, organism-based; details: Hepatocyte, 96 h
# [13] = Toxicity against non-human primate hepatocytes infected with liver stage Plasmodium cynomolgi B incubated for 4 days starting on day 4 post-sporozoite inoculation; format: ADME, tissue-based, Hepatocyte; details: primates, 96 h, time 4 day
# [14] = Toxicity against non-human primate hepatocytes infected with liver stage Plasmodium cynomolgi B incubated for 4 days from sporozoite addition; format: ADME, tissue-based, Hepatocyte; details: primates, 96 h, time 4 day
# Plasmodium cynomolgi [15] = experiment: Antiplasmodial activity against liver stage Plasmodium cynomolgi B infected in non-human primate hepatocytes assessed as inhibition of hypnozoite development incubated for 4 days from sporozoite addition by prophylactic assay; format: functional, organism-based; details: Hepatocyte, 96 h
# [16] = Metabolic stability in human liver microsomes assessed as half life incubated for 60 mins in the presence of NADPH by LC-MS/MS analysis; format: ADME, Microsome
# Cytochrome P450 2C9 = Cytochrome P450 2C9 (Homo sapiens, UniProt P11712); experiment: Inhibition of human CYP2C9 using 7-methoxy-4(trifluoromethyl coumarin) as a substrate incubated for 15 mins by fluorescence based analysis; format: ADME
# Homo sapiens = species on record: Homo sapiens; experiment: Inhibition of human PKG using FAM-labeled PKAtide or IP3R-derived peptide as a substrate at 10 uM preincubated for 15 mins followed by substrate addition and incubated for 60 mins by IMAP assay relative to control; details: time 75.0 min
# [17] = system: cGMP-dependent protein kinase (Plasmodium falciparum), W7JX98 [T618Q]; experiment: Inhibition of Plasmodium falciparum PKG T618Q mutant using FAM-labeled PKAtide or IP3R-derived peptide as a substrate at 10 uM preincubated for 15 mins followed by substrate addition and incubated for 60 mins by IMAP assay relative to control; details: time 75.0 min
# Chain of cGMP-dependent protein kinase (Plasmodium falciparum), W7JX98 [T618Q] (W7JX98 whole entry T618Q): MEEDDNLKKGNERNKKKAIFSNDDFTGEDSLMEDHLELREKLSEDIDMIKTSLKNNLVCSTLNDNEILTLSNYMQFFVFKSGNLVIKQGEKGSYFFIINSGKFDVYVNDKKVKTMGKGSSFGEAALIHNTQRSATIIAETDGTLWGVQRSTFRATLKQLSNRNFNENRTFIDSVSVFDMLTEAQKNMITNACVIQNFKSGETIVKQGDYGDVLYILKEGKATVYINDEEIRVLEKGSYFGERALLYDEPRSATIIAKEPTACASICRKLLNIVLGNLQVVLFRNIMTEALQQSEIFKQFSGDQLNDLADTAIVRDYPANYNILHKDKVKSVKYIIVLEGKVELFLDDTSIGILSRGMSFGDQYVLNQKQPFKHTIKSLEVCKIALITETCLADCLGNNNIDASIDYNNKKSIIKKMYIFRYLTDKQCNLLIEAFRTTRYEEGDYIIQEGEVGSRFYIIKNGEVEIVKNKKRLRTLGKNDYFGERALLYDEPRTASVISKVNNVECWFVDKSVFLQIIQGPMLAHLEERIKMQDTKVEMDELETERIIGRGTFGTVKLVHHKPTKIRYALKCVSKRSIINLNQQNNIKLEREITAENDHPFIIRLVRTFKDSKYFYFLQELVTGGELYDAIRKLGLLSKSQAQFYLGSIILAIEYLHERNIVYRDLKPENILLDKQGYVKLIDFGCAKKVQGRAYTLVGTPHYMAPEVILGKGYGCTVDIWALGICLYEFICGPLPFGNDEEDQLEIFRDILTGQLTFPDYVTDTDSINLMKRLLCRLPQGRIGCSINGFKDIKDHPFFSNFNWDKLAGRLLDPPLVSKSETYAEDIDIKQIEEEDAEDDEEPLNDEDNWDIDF
# Chain of Cytochrome P450 2D6 (P10635 whole entry): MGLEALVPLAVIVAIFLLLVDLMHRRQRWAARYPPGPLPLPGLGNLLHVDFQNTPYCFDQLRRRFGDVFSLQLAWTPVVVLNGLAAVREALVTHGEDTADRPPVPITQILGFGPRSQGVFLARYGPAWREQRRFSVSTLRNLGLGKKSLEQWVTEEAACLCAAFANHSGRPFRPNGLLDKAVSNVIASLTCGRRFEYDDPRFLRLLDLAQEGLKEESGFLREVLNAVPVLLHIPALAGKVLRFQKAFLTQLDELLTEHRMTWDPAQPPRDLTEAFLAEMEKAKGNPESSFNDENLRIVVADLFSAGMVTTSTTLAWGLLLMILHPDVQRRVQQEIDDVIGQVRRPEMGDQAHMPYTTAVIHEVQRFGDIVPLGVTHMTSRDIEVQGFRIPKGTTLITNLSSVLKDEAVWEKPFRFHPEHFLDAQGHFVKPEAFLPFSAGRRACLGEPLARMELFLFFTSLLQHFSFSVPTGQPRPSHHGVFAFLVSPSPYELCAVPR
# Chain of Cytochrome P450 3A4 (P08684 whole entry): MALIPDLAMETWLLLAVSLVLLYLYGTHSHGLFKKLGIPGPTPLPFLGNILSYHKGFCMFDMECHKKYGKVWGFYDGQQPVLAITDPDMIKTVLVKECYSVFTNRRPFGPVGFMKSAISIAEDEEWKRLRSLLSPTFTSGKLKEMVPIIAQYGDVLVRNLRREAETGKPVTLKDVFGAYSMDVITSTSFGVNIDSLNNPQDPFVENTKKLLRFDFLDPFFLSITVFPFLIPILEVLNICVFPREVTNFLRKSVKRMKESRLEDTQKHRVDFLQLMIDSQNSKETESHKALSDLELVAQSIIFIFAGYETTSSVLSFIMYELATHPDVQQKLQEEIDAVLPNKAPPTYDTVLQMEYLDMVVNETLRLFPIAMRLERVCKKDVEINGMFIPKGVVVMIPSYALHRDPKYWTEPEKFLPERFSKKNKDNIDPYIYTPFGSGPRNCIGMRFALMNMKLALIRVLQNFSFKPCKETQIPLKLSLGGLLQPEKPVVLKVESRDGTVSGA
# Chain of Cytochrome P450 2C9 (P11712 whole entry): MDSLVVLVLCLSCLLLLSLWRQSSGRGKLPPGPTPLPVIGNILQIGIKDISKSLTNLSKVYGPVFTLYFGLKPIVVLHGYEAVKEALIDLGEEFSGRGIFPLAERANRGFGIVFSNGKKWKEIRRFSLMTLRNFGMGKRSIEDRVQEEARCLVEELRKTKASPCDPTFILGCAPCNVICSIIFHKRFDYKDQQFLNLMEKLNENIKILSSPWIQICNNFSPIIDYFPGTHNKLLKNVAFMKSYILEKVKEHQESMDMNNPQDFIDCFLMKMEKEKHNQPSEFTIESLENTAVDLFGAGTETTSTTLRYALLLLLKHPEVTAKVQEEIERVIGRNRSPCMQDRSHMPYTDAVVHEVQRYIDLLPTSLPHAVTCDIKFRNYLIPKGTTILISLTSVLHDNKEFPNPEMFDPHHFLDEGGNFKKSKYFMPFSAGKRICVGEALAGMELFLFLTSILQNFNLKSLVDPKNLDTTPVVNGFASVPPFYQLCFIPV
compound,measurement,setting,value
CCN(CC)Cc1onc(-c2cccc(Cl)c2)c1-c1ccnc(N[C@@H]2CCN(C(=O)c3ccon3)C2)n1,percent decrease in parasite infection in HepG2 cells at 2 µM,Plasmodium berghei [1],52%
same,IC50,[2],13 nM
Cc1cn(-c2ccnc(NCC3(NC(=O)c4nccs4)CC3)n2)c(-c2ccccc2)n1,inhibition,Plasmodium falciparum [3],6%
Cc1cn(-c2ccnc(N[C@H]3CCN(C(=O)c4nccs4)C3)n2)c(-c2ccccc2)n1,inhibition,Plasmodium falciparum [3],4%
CCN(CC)Cc1onc(-c2cccc(Cl)c2)c1-c1ccnc(N[C@@H]2CCN(C(=O)c3ccsn3)C2)n1,percent decrease in parasite infection in HepG2 cells at 2 µM,Plasmodium berghei [1],0%
same,IC50,[2],17 nM
CN1CCC(c2cc(-c3ccc(F)cc3)c(-c3ccncc3)[nH]2)CC1,IC50,[4],22 nM
same,percent decrease in parasite infection in HepG2 cells at 2 µM,Plasmodium berghei [1],91%
same,percent inhibition of parasite infection at 10 µM,Plasmodium berghei [5],94%
same,EC50,Plasmodium berghei [6],300 nM
same,IC50,[2],20 nM
same,EC50,Plasmodium falciparum [7],150 nM
Cc1cn(-c2ccnc(NCC3CCCN3C(=O)c3nccs3)n2)c(-c2ccccc2)n1 (stereo not drawn),inhibition,Plasmodium falciparum [3],3%
Cc1cn(-c2ccnc(N[C@@H]3CCN(C(=O)c4nccs4)C3)n2)c(-c2ccc(Cl)cc2)n1,IC50,[4],1160 nM
Cc1cn(-c2ccnc(NCC3CCN3C(=O)c3nccs3)n2)c(-c2ccccc2)n1 (stereo not drawn),inhibition,Plasmodium falciparum [3],2%
Cc1cn(-c2ccnc(N[C@@H]3CCN(C(=O)c4ccn(C)n4)C3)n2)c(-c2ccccc2)n1,IC50,[4],1000 nM
Cc1cn(-c2ccnc(N[C@@H]3CCN(C(=O)c4nccs4)C3)n2)c(-c2ccccc2Cl)n1,inhibition,Plasmodium falciparum [3],47%
O=C(c1nccs1)N1CC[C@@H](Nc2nccc(-n3cc(C4CC4)nc3-c3cccc(Cl)c3)n2)C1,IC50,[4],60 nM
same,percent decrease in parasite infection in HepG2 cells at 2 µM,Plasmodium berghei [1],94%
same,solubility kinetic at 1 h,[8],28 µM
same,percent inhibition of parasite infection at 10 µM,Plasmodium berghei [5],93%
same,IC50,Cytochrome P450 2D6,> 10000 nM
same,EC50,Plasmodium berghei [6],5700 nM
same,half-life,[9],< 2 min
same,IC50,Plasmodium cynomolgi [10],930 nM
same,IC50,Cytochrome P450 3A4,190 nM
same,IC50,Plasmodium cynomolgi [11],> 20000 nM
same,IC50,Plasmodium cynomolgi [12],4620 nM
same,Activity,[13],> 20 µM
same,Activity,[14],> 20 µM
same,IC50,Plasmodium cynomolgi [15],9880 nM
same,half-life,[16],3.7 min
same,EC50,Plasmodium falciparum [7],3300 nM
same,IC50,Cytochrome P450 2C9,2800 nM
COc1cc(C)c2c(Oc3cccc(C(F)(F)F)c3)c(OC)cc(NC(C)CCCN)c2n1 (stereo not drawn) [TAFENOQUINE],IC50,Plasmodium cynomolgi [10],190 nM
same,IC50,Plasmodium cynomolgi [11],3500 nM
same,IC50,Plasmodium cynomolgi [12],3610 nM
same,Activity,[13],18.61 µM
same,Activity,[14],13.82 µM
same,IC50,Plasmodium cynomolgi [15],140 nM
O=C(c1nccs1)N1CC[C@@H](Nc2nccc(-n3cc(C4CC4)nc3-c3ccccc3)n2)C1,IC50,[4],100 nM
same,solubility kinetic at 1 h,[8],92 µM
same,IC50,Cytochrome P450 2D6,> 10000 nM
same,EC50,Plasmodium berghei [6],20000 nM
same,half-life,[9],< 2 min
same,IC50,Cytochrome P450 3A4,290 nM
same,half-life,[16],4.8 min
same,EC50,Plasmodium falciparum [7],7600 nM
same,IC50,Cytochrome P450 2C9,> 10000 nM
Cc1cn(-c2ccnc(NC3CCN(C(=O)c4nccs4)CC3)n2)c(-c2ccccc2)n1,inhibition,Plasmodium falciparum [3],5%
Cc1cn(-c2ccnc(NC3CCCN(C(=O)c4nccs4)C3)n2)c(-c2ccccc2)n1 (stereo not drawn),inhibition,Plasmodium falciparum [3],4%
Cc1cn(-c2ccnc(N[C@@H]3CCN(C(=O)c4nccs4)C3)n2)c(-c2ccccc2)n1,IC50,[4],320 nM
same,percent decrease in parasite infection in HepG2 cells at 2 µM,Plasmodium berghei [1],78%
same,solubility kinetic at 1 h,[8],200 µM
same,percent inhibition of parasite infection at 10 µM,Plasmodium berghei [5],89%
same,half-life,[9],< 2 min
same,IC50,Plasmodium cynomolgi [10],7910 nM
same,IC50,Plasmodium cynomolgi [11],> 20000 nM
same,inhibition,Homo sapiens,3%
same,IC50,Plasmodium cynomolgi [12],11600 nM
same,Activity,[13],> 20 µM
same,Activity,[14],> 20 µM
same,IC50,Plasmodium cynomolgi [15],> 20000 nM
same,half-life,[16],< 2 min
same,inhibition,[17],3%
CO[C@@H]1[C@@H](OC)[C@H](C)C(O)(CC(=O)O)O[C@H]1[C@H](C)[C@H]1O[C@@]2(CC[C@@](C)([C@H]3CC[C@@](C)([C@@H]4O[C@@H]([C@H]5OC(C)(O)[C@H](C)C[C@@H]5C)C[C@@H]4O[C@@H]4C[C@H](OC)[C@@H](OC)[C@H](C)O4)O3)O2)C[C@H](O)[C@H]1C (stereo partly drawn),IC50,Plasmodium cynomolgi [10],10 nM
same,IC50,Plasmodium cynomolgi [11],30 nM
same,IC50,Plasmodium cynomolgi [12],30 nM
same,Activity,[13],11.91 µM
same,Activity,[14],5.78 µM
same,IC50,Plasmodium cynomolgi [15],20 nM
COc1cccc(-c2nc(C)cn2-c2ccnc(N[C@@H]3CCN(C(=O)c4nccs4)C3)n2)c1,IC50,[4],86 nM
Cc1cn(-c2ccnc(N[C@@H]3CCN(C(=O)c4nccs4)C3)n2)c(-c2cccc(OC(F)(F)F)c2)n1,IC50,[4],150 nM
